Where two headings read alike, the source gives them in different places.
Experiments:
[1] = system: SDMA in human colon cancer cell line HCT116; experiment: Cell symmetric dimethylarginine (SDMA) test, In-cell Western, HCT116 (MTAP wild-type); type: cell-based; details: Homo sapiens, HCT-116, 96 h
In short: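 SDMA level, an indirect readout of cellular MAT2A inhibition, measured by In-cell Western as background-subtracted 800/700 nm signal against DRAQ5. Cells exposed 4 days to six 1:4-diluted doses from 6 μM; inhibition relative to DMSO, IC50 from sigmoidal fit.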

DOHH-2 cell strain = experiment: Tumor cell proliferation inhibition assay (CellTiter-Glo), DOHH-2; type: cell-based; details: Homo sapiens, 120 h, DOHH-2 cells, 5-day treatment
Procedure: (§1) After the HCT116-MTAP-knockout (−/−) cell strain, the HCT116-MTAP wild-type(+/+)-cell strain, the DOHH-2 cell strain, or the Hut-78 cell strain was treated with the test compound for 5 days, the ATP level was measured using a CellTiter-Glo kit of Promega to evaluate the inhibition of the test compound against the growth of the tumor cell strain.
(§2) In the present application, the HCT116-MTAP-knockout (−/−) cell strain, the HCT116-MTAP wild-type (+/+)-cell strain, the DOHH-2 cell strain, or the Hut-78 cell strain was seeded into a 96-well cell culture plate at an appropriate cell density. After 24 h, the cells were treated using the test compounds diluted 1:3 fold at the highest concentration of 10 μM for 10 gradients, and a DMSO treatment group was set up separately. The cells were cultured in a 37° C./5% CO2 incubator for 5 days.

[2] = system: SDMA in HCT116-MTAP-knockout cell line; experiment: Cell symmetric dimethylarginine (SDMA) test, In-cell Western, HCT116-MTAP-knockout; type: cell-based; details: Homo sapiens, 96 h
[3] = target: MAT2A recombinant protein (Homo sapiens, UniProt P31153); experiment: MAT2A inhibitory activity (malachite green colorimetric enzyme assay); type: biochemical
Chain of MAT2A recombinant protein (P31153 whole entry): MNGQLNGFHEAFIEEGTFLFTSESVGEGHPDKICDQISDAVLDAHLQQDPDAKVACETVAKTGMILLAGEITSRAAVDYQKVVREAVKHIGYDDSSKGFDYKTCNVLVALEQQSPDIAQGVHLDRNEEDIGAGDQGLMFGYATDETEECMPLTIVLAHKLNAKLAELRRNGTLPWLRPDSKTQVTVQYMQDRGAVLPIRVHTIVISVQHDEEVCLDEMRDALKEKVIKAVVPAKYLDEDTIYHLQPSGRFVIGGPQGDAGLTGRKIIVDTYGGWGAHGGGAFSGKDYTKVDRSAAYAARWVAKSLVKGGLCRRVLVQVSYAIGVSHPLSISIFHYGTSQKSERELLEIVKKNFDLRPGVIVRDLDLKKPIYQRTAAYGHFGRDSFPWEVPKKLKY
In short: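 Compounds tested over 10 points, 3-fold dilutions, top final concentration 1000 nM. Enzyme reaction: MAT2A, L-methionine, ATP, room temperature, 60 min, in HEPES pH 7.5 buffer with KCl, MgCl2 and DTT; inorganic phosphate read colorimetrically (malachite green, A630). Inhibition vs log concentration fitted for IC50.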

[4] = system: HCT116-MTAP-knockout (−/−) cell strain; experiment: Tumor cell proliferation inhibition assay (CellTiter-Glo), HCT116-MTAP-knockout (-/-); type: cell-based; details: Homo sapiens, 120 h, HCT116-MTAP-knockout (−/−) cells, 5-day treatment
In short: (§3)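 Cells were seeded, left 24 h, then exposed to test compounds in a 10-point, 1:3 dilution series from 10 μM top concentration alongside a DMSO group. After 5 days at 37° C./5% CO2, growth inhibition was judged from ATP level by CellTiter-Glo luminescence.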

[5] = system: HCT116-MTAP wild-type (+/+)-cell strain; experiment: Tumor cell proliferation inhibition assay (CellTiter-Glo), HCT116-MTAP wild-type (+/+); type: cell-based; details: Homo sapiens, 120 h, HCT116-MTAP wild-type (+/+) cells, 5-day treatment
In short: as §3

Hut-78 cell strain = experiment: Tumor cell proliferation inhibition assay (CellTiter-Glo), Hut-78; type: cell-based; details: Hut-78 cells, 5-day treatment
Procedure: as §1, §2

[6] = Pharmacokinetic test in mice (IV and PO); type: in vivo; details: mouse, plasma, BALB/c mice; for half-life: read-out: T½ (converted)
[7] = IC50 score class, read-out: Cell 96 h SDMA Inhibition (HCT116-MTAP+/+) (score)
[8] = IC50 score, read-out: Tumor cell 5-day relative growth inhibition (DOHH-2) (nM), score
[9] = IC50 value, read-out: Tumor cell 5-day relative growth inhibition (DOHH-2)
[10] = IC50 score class, read-out: Cell 96 h SDMA Inhibition (HCT116-MTAP−/−) (score)
[11] = read-out: Cell 96 h SDMA Inhibition (HCT116-MTAP−/−)
[12] = read-out: Cell 96 h SDMA inhibition (HCT116-MTAP+/+)
[13] = IC50 score class, read-out: MAT2A Inhibition (score)
[14] = IC50 score, read-out: Tumor cell 5-day relative growth inhibition (HCT116-MTAP−/−) (nM), score
[15] = IC50 value, read-out: Tumor cell 5-day relative growth inhibition (HCT116-MTAP−/−)
[16] = IC50 score, read-out: Tumor cell 5-day relative growth inhibition (HCT116-MTAP+/+) (nM), score
[17] = IC50 value, read-out: Tumor cell 5-day relative growth inhibition (HCT116-MTAP+/+)
[18] = Homo sapiens, HuT78, 120 h, IC50 score, read-out: Tumor cell 5-day relative growth inhibition (Hut-78) (nM), score
[19] = Homo sapiens, HuT78, 120 h, IC50 value, read-out: Tumor cell 5-day relative growth inhibition (Hut-78)

IC50 [1, 7]	IC50 (DOHH-2 cell strain; [8])	IC50 (DOHH-2 cell strain; [9])	IC50 [2, 10]	IC50 [2, 11]	IC50 [1, 12]	IC50 [3, 13]	IC50 ([3]; read-out: MAT2A Inhibition)	IC50 [4, 14]	IC50 [4, 15]	IC50 [5, 16]	IC50 [5, 17]	IC50 (Hut-78 cell strain; [18])	SMILES	other results
200 to 1000 nM	≥ 2000 nM	16900 nM	> 3000 nM	3570 nM	–	–	–	–	–	–	–	–	CCn1cc2c(n1)c(=O)n(-c1cnccn1)c1cc(Cl)ccc21 [Compound B6]	–
1000 to 3000 nM	500 to 2000 nM	1000 nM	200 to 1000 nM	271 nM	2100 nM	–	–	–	–	–	–	–	CCn1cc2c(n1)c(=O)n(-c1cccc(O)c1)c1cc(Cl)ccc21 [Compound B8]	–
1000 to 3000 nM	500 to 2000 nM	1090 nM	200 to 1000 nM	328 nM	2350 nM	–	–	–	–	–	–	–	CCn1cc2c(n1)c(=O)n(-c1cccc(C#N)c1)c1cc(Cl)ccc21 [Compound B9]	–
1000 to 3000 nM	≥ 2000 nM	6680 nM	1000 to 3000 nM	–	–	< 100 nM	66.9 nM	–	–	–	–	–	CCn1cc2c(n1)c(=O)n(-c1cncc(F)c1)c1cc(Cl)ccc21 [Compound B14]	–
200 to 1000 nM	500 to 2000 nM	811 nM	< 200 nM	63.6 nM	636 nM	< 100 nM	26.8 nM	–	–	–	–	–	Cc1c2c(nn1C)c(=O)n(-c1cccnc1)c1cc(Cl)ccc21 [Compound B16]	–
–	≥ 2000 nM	> 2000 nM	> 3000 nM	8410 nM	–	100 to 1000 nM	149 nM	–	–	–	–	–	CCn1cc2c(n1)c(=O)n(Cc1c[nH]cn1)c1cc(Cl)ccc21 [Compound B18]	–
> 3000 nM	≥ 2000 nM	2360 nM	200 to 1000 nM	521 nM	5150 nM	< 100 nM	37.2 nM	–	–	–	–	–	CCn1nc2c(=O)n(-c3cccnc3)c3cc(Cl)ccc3c2c1Cl [Compound B20]	–
> 3000 nM	≥ 2000 nM	11700 nM	1000 to 3000 nM	1280 nM	> 3000 nM	< 100 nM	77 nM	–	–	–	–	–	Cn1nc2c(=O)n(-c3cccnc3)c3cc(Cl)ccc3c2c1C(F)F [Compound B27]	–
200 to 1000 nM	≥ 2000 nM	8080 nM	< 200 nM	169 nM	971 nM	< 100 nM	65.3 nM	–	–	–	–	–	CCn1cc2c(n1)c(=O)n(-c1c(C)ccnc1C)c1cc(Cl)ccc21 [Compound B31]	–
1000 to 3000 nM	≥ 2000 nM	2700 nM	< 200 nM	53.9 nM	2260 nM	< 100 nM	43.5 nM	–	–	–	–	–	CCn1cc2c(n1)c(=O)n(-c1cccnc1C(F)(F)F)c1cc(Cl)ccc21 [Compound B32]	–
> 3000 nM	≥ 2000 nM	2020 nM	< 200 nM	132 nM	3220 nM	< 100 nM	27.4 nM	–	–	–	–	–	COCCn1cc2c(n1)c(=O)n(-c1cccnc1)c1cc(Cl)ccc21 [Compound B45]	–
> 3000 nM	≥ 2000 nM	6030 nM	200 to 1000 nM	236 nM	19400 nM	–	–	–	–	–	–	–	O=c1c2nn(CCO)cc2c2ccc(Cl)cc2n1-c1cccnc1 [Compound B46]	–
> 3000 nM	≥ 2000 nM	7690 nM	> 3000 nM	8520 nM	> 10000 nM	< 100 nM	40.8 nM	–	–	–	–	–	CCn1cc2c(n1)c(=O)n(-c1cnccc1C)c1cc(Cl)ccc21 [Compound B51]	–
1000 to 3000 nM	500 to 2000 nM	1930 nM	200 to 1000 nM	375 nM	1550 nM	–	–	–	–	–	–	–	Cn1cc2c(n1)c(=O)n(-c1cccnc1)c1cc(C3CC3)ccc21 [Compound B70]	–
1000 to 3000 nM	500 to 2000 nM	1290 nM	200 to 1000 nM	203 nM	1270 nM	–	–	–	–	–	–	–	Cn1cc2c(n1)c(=O)n(-c1cccnc1)c1nc(C3CC3)ccc21 [Compound B71]	–
< 200 nM	–	–	< 200 nM	5.2 nM	158 nM	< 100 nM	29.4 nM	< 500 nM	5.14 nM	< 500 nM	293 nM	< 500 nM	Cc1ncccc1-n1c(=O)c2n[nH]cc2c2ccc(C(F)(F)F)nc21 [Compound B96]	IC50 (Hut-78 cell strain; [19]): 27.2 nM
200 to 1000 nM	–	–	< 200 nM	12.3 nM	561 nM	< 100 nM	39.7 nM	< 500 nM	13.6 nM	< 500 nM	488 nM	< 500 nM	Cc1ncccc1-n1c(=O)c2nn(C)c(C)c2c2ccc(C(F)(F)F)nc21 [Compound B189]	IC50 (Hut-78 cell strain; [19]): 49.2 nM
1000 to 3000 nM	–	–	< 200 nM	29.3 nM	1290 nM	< 100 nM	41 nM	< 500 nM	35.6 nM	500 to 2000 nM	942 nM	< 500 nM	Cc1ncccc1-n1c(=O)c2nn(CC3CC3)cc2c2ccc(C(F)(F)F)nc21 [Compound B191]	IC50 (Hut-78 cell strain; [19]): 95.6 nM
200 to 1000 nM	–	–	< 200 nM	48.5 nM	567 nM	< 100 nM	17.1 nM	< 500 nM	31.5 nM	500 to 2000 nM	745 nM	< 500 nM	Cc1c2c(nn1C)c(=O)n(-c1cccnc1)c1nc(C(F)(F)F)ccc21 [Compound B198]	AUC ([6]; IV 2 mg/kg): 8.7 µM·h; clearance ([6]; IV 2 mg/kg): 10.7 mL/min/kg; bioavailability ([6]; IV 2 mg/kg, PO 10 mg/kg): 150%; half-life ([6]; IV 2 mg/kg): 40.9 min; Vd ([6]; IV 2 mg/kg, read-out: Vz): 0.6 L/kg; AUC ([6]; PO 10 mg/kg): 65.2 µM·h; half-life ([6]; PO 10 mg/kg): 55.1 min; IC50 (Hut-78 cell strain; [19]): 40.2 nM
200 to 1000 nM	–	–	< 200 nM	184 nM	899 nM	< 100 nM	53.7 nM	< 500 nM	181 nM	≥ 2000 nM	53800 nM	< 500 nM	O=c1c2nn(CC3CC3)cc2c2ccc(C(F)(F)F)nc2n1-c1cccnc1 [Compound B199]	IC50 (Hut-78 cell strain; [19]): 323 nM
1000 to 3000 nM	–	–	200 to 1000 nM	210 nM	1180 nM	< 100 nM	21.7 nM	< 500 nM	104 nM	≥ 2000 nM	4200 nM	< 500 nM	O=c1c2nn(C3CC3)cc2c2ccc(C(F)(F)F)nc2n1-c1cccnc1 [Compound B215]	IC50 (Hut-78 cell strain; [19]): 310 nM
200 to 1000 nM	–	–	< 200 nM	6.35 nM	250 nM	< 100 nM	13.4 nM	< 500 nM	15.5 nM	< 500 nM	135 nM	< 500 nM	Cc1ncccc1-n1c(=O)c2nn(C)cc2c2ccc(Cl)cc21 [Compound B233]	IC50 (Hut-78 cell strain; IC50 value, read-out: Tumor cell 5-day relative growth inhibition (Hut-78)): 8.05 nM
